Test results published in US6355443B1, “4-(4-hydroxystyryl) pyridine-containing substrates for an analyte dependent enzyme activation system” (priority 1999, dated 2002).

Experiments:
[1] = molecular target: T1, Horseradish peroxidase (HRP) conjugated wheat germ agglutinin (Armoracia rusticana, UniProt P00433); experiment: Sensitive HRP localization using a 4-(4-hydroxystyryl) pyridine containing compound; conditions: sections of mouse intestine; for fluorescence labeling of tissue sections after HRP-catalyzed deposition: HRP-conjugated wheat germ agglutinin 0.5 μg/ml, substrate 100 μg/ml, 10 min, 360 nm excitation/>400 nm emission
T1 construct: purchased Sigma; St. Louis, Mo
T1 sequence (P00433 31-338 limits assumed): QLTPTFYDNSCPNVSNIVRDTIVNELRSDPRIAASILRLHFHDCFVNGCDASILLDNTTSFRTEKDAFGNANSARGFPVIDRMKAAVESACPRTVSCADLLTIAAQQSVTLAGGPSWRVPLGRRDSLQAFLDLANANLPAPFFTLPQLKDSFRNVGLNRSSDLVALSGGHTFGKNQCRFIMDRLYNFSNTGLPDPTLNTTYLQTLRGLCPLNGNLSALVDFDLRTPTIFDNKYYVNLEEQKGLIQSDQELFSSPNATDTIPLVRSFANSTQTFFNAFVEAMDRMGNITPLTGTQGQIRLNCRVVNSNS
Protocol: Sections of paraffin-embedded mouse intestine were deparaffinized and non-specific binding sites blocked by treatment for thirty minutes in PBS-blocking buffer (PBS-BB; 0.1M phosphate buffered saline, pH 7.2; 1.0% bovine serum albumin, 0.2% non-fat powdered milk, and 0.3% Triton X-100). Horseradish peroxidase (HRP) conjugated wheat germ agglutinin (Sigma; St. Louis, Mo.) at a concentration of 0.5 μg/ml in PBS-BB was incubated on sections for one hour at room temperature. Control sections were incubated in PBS-BB alone. Sections were then washed in PBS (three X for five minutes each wash) and reacted for ten minutes at room temperature in a solution containing 4-(4-hydroxystyryl) pyridinium propylsulfonate (HPPS) (Molecular Biosciences; Boulder, Colo.) at 100 μg/ml in TSA Amplification Diluent, (NEN Life Science Products, Inc.; Boston, Mass.). Sections were then washed in PBS (three X for five minutes each wash), mounted in PBS:Glycerol (1:1) and coverslipped. Sections were viewed with a Zeiss Axioskop microscope equipped with epifluorescence and a filter set with excitation/emission characteristics of 360 nm peak excitation/>400 nm long pass emission. Photomicrographs were taken using a Zeiss MC100 camera system.

[2] = molecular target: T1, Horseradish peroxidase (HRP) conjugated wheat germ agglutinin; experiment: Stability of deposited fluorescent reaction product in aqueous vs non-aqueous mounting medium
Protocol: Sections of paraffin-embedded mouse intestine were deparaffinized and non-specific binding sites were blocked by treatment for thirty minutes in PBS-BB. HRP conjugated wheat germ agglutinin (Sigma), at a concentration of 0.5 μg/ml in PBS-BB, was incubated on sections for one hour at room temperature. Sections were then washed in PBS (three X for five minutes each wash) and were reacted for ten minutes at room temperature in a solution of 4-(4-hydroxystyryl) methylpyridinium tosylate (HMPT) (Molecular Biosciences) at 100 μg/ml in TSA Amplification Diluent (NEN Life Science Products, Inc.). Sections were then washed in PBS (three X for five minutes each wash) and either mounted in PBS:Glycerol (1:1) or dehydrated in graded ethanol solutions (0%, 70%, 95%, 100%, 100% three minutes each) and xylene (two X for three minutes each) mounted in Permount (a non-aqueous mounting medium; Fisher Scientific, Pittsburgh, Pa.) and coverslipped. The fluorescent signal intensity of slides mounted in aqueous (PBS:Glycerol) or non-aqueous (Permount) media was compared using a Zeiss Axioskop microscope equipped with epifluorescence and a 360 nm excitation/>400 nm emission filter set. Photomicrographs were taken using a Zeiss MC100 camera system and standard two second exposures.

| Molecule | concentration of conjugated wheat germ agglutinin used/required for wheat germ agglutinin localization [1] | fluorescence labeling of tissue sections after HRP-catalyzed deposition [1] | fluorescence labeling of tissue sections after HRP-catalyzed deposition ([1]; listed as EPPS) | background signal / signal/noise ratio when mounted in non-aqueous media ([2]; Permount, non-aqueous) | localization of wheat germ agglutinin reactivity ([2]; aqueous and non-aqueous medium) | fluorescence in aqueous solution ([2]; section of mouse intestine, aqueous (FIG. 2A)) | reaction product fluorescence in non-aqueous medium ([2]; section of mouse intestine, non-aqueous (FIG. 2B)) | fluorescence intensity of reaction product in aqueous versus non-aqueous medium ([2]; sections of mouse intestine, PBS:Glycerol (aqueous) vs Permount (non-aqueous), two second exposures) |
| --- | --- | --- | --- | --- | --- | --- | --- | --- |
| 4-(4-hydroxystyryl) pyridinium propylsulfonate [HPPS] | 0.5 µg/mL | intense HPPS fluorescence was localized to intestinal goblet cells | intense EPPS fluorescence localized to intestinal goblet cells | – | – | – | – | – |
| C[n+]1ccc(C=Cc2ccc(O)cc2)cc1.Cc1ccc(S(=O)(=O)[O-])cc1 [HMPT, 4-(4-hydroxystyryl) methylpyridinium tosylate] | – | – | – | background signal is reduced resulting in a better signal/noise ratio | Strong wheat germ agglutinin reactivity was localized to the intestinal epithelium under both conditions | bright fluorescence in aqueous solution | bright reaction product in a non-aqueous medium | equally bright in aqueous (FIG. 2A) and non-aqueous (FIG. 2B) medium |
